According to patent US20260078346A1, “Cell Tissue Production Method, Application Method and Application Device” (NTN Corporation, priority 2022, published 2026):

Experiments:
[1] = tested on: 2D tissue (planarly cultured iPS cardiomyocytes and normal human cardiac fibroblasts); test: Ca2+ transient waveform change on addition of isoproterenol, 2D tissue; assay type: cell-based; conditions: increasing isoproterenol concentration (nM)
Method: (§1) After a myocardial tissue after being cultured for seven days was dyed, Ca^2+ transient measurement was performed from the viewpoint of checking a function of myocardial contraction. The measurement was performed for a myocardial tissue after culture (hereinafter described as “application tissue”) illustrated in FIG. 29 in this example and a planarly cultured tissue (hereinafter described as “2D tissue”) serving as a comparative example. In the myocardial tissue in the comparative example, iPS cardiomyocytes (iCell Cardiomyocyte 2) and normal human cardiac fibroblast were set to 4:1 in a number ratio. In the myocardial tissue in the comparative example, 50000 cells per one well were seeded and planarly cultured in the same culture medium as the culture medium of the application tissue obtained by the same application device as the application device in the second embodiment. A result of the Ca^2+ transient measurement is illustrated in the following Table 1.
(§2) Subsequently, a change in a Ca^2+ transient waveform at the time when isoproterenol that is a β adrenergic receptor agonist was added was evaluated. In general, the isoproterenol raises the heart rate and the contraction force of a cardiomyocyte. The contraction force of the cardiomyocyte has a correlation with the fluorescence intensity (AMP) of the Ca^2+ transient measurement. […]

[2] = tested on: application tissue (myocardial tissue of iPS cardiomyocytes and normal human cardiac fibroblasts); test: Ca2+ transient waveform change on addition of isoproterenol, application tissue; assay type: cell-based; conditions: increasing isoproterenol concentration (nM)
Method: as §1, §2

SMILES: CC(C)NCC(O)c1ccc(O)c(O)c1 (stereo not shown) [isoproterenol]
- change in BPM when isoproterenol is added ([1]; FIG. 31): rose according to an increase in the isoproterenol concentration
- change in AMP (fluorescence intensity) when isoproterenol is added ([1]; FIG. 32): did not rise much
- change in BPM when isoproterenol is added ([2]; FIG. 31): rose according to an increase in the isoproterenol concentration
- change in AMP (fluorescence intensity) when isoproterenol is added ([2]; FIG. 32): rose depending on the concentration of the isoproterenol
